The values that follow come from patent US12643892B2, “Pyridazinone compounds for the treatment of neuromuscular diseases” (Edgewise Therapeutics, Inc., priority 2020, dated 2026).

For the test, the target named is Skeletal Myofibril ATPase (Rabbit Psoas myofibrils). As to the kind of experiment: Skeletal Myofibril ATPase Assay. It is filed as biochemical. Conditions: PK/LDH-coupled NADH absorbance at 340 nm. As for the experimental part:
Overview: Myosin ATPase activity was assessed by using a coupled reaction system, in which ADP generated by the myosin ATPase function was coupled to the disappearance of NADH through the pyruvate kinase/lactate dehydrogenase (PK-LDH) system. Myosin ATPase activity produces ADP, which was used as a substrate for PK to produce pyruvate and regenerate ATP. The pyruvate was then used as a substrate by LDH to oxidize NADH to NAD+. The rate of the reaction was monitored through the time-dependent disappearance of NADH using absorbance at 340 nm. Inhibition of ATPase activity by the assayed compounds was indicated by a reduced rate of NADH loss, relative to vehicle-treated controls, over the experimental time window. To assess the selectivity of the assayed compounds for skeletal myofibrils, the compounds were counter-screened in cardiac myofibrils.
Materials: The following stock solutions and reagents were used in the Skeletal Myofibril ATPase Assay:
Stock Solutions of pCa buffer. Combine PIPES, CaCl2, and EGTA solutions with 70 mL of water. Adjust pH to 7.0 and bring final volume to 100 mL.
Buffer A & Buffer B. Buffers were stored on ice until use.
Skeletal Myofibril ATPase Assay Procedure: BSA, ATP, NADH, PEP, and DTT solutions were thawed at room temperature, then transferred to ice. Pellet-frozen myofibrils (approximately twice the required volume) were transferred into a sufficiently large tube and capped. Myofibrils were thawed by rolling in a water bath for approximately 15 min at room temperature and cooled on ice. Buffers A and B were prepared by adjusting volumes as necessary for required number of wells and stored on ice. 0.5 μL of the compounds to be assayed were added into wells of a 384-well plate. Buffers A and B were mixed by inversion immediately prior to use, then 25 μL of each was dispensed using a Multidrop dispenser (Buffer A first, then Buffer B). The absorbance within the wells was measured at 340 nm, using a kinetic protocol in which the wells are read every 1.5-2 min for 1 h. The reaction rate was qualitatively assessed by subtracting the minimum absorbance value from the maximum value for each well, using either the SoftMax Pro plate reader software or a spreadsheet program such as Excel. Using GraphPad Prism 8.0, the data was normalized, with 100% activity defined as the absorbance change in the 1% DMSO vehicle wells and 0% assigned to no change in absorbance over the course of the experiment. The normalized data were fit to a variable-slope four-parameter logistic model, constraining the bottom to be 0 or greater. Compounds of Table 1 to 3 were tested and results of the assay appear in Table 4 herein. A=IC50 is less than or equal to 10 μM; B=IC50 is greater than 10 μM and less than 100 μM; C=IC50 is greater than 100 μM.
In the case of `COCCn1nc(-c2nc(-c3ccc(F)c(C)c3)no2)ccc1=O` [Compound 74, 6-(3-(4-fluoro-3-methylphenyl)-l,2,4-oxadiazol-5-yl)-2-(2-methoxyethyl)pyridazin-3(2H)-one], the IC50 was 10 to 100 µM. Take `COCCn1nc(-c2nc(-c3ccc(F)c(F)c3)no2)ccc1=O` [Compound 75, 6-(3-(3,4-difluorophenyl)-1,2,4-oxadiazol-5-yl)-2-(2-methoxyethyl)pyridazin-3(2H)-one]: the half-inhibitory concentration (IC50) lay within 10 to 100 µM.

As to `CCCCn1nc(-c2nc(-c3ccc(F)cc3)no2)ccc1=O` [Compound 76, 2-butyl-6-(3-(4-fluorophenyl)-1,2,4-oxadiazol-5-yl)pyridazin-3(2H)-one], the half-inhibitory concentration (IC50) is ≤ 10 µM. The same measure for `CCCn1nc(-c2nc(COc3ccccc3)no2)ccc1=O` [Compound 77, 6-(3-(phenoxymethyl)-1,2,4-oxadiazol-5-yl)-2-propylpyridazin-3(2H)-one]: 10 to 100 µM; for `O=c1ccc(-n2cncn2)nn1Cc1cccc(Cl)c1` [Compound 78, 2-(3-chlorobenzyl)-6-(1H-1,2,4-triazol-1-yl)pyridazin-3(2H)-one]: 10 to 100 µM; for `O=c1ccc(-n2cncn2)nn1Cc1ccc(Cl)cc1` [Compound 79, 2-(4-chlorobenzyl)-6-(1H-1,2,4-triazol-1-yl)pyridazin-3(2H)-one]: 10 to 100 µM. The same measure for `O=c1ccc(-n2cncn2)nn1Cc1csc(Br)c1` [Compound 80, 2-((5-bromothiophen-3-yl)methyl)-6-(1H-1,2,4-triazol-1-yl)pyridazin-3(2H)-one]: 10 to 100 µM; for `CCNC(=O)Cn1nc(-c2nc(-c3cccc(Cl)c3)cs2)ccc1=O` [Compound 81, 2-(3-(4-(3-chlorophenyl)thiazol-2-yl)-6-oxopyridazin-1(6H)-yl)-N-ethylacetamide]: > 100 µM; for `CCC(C)(C)NC(=O)Cn1nc(-c2ccc(C)s2)ccc1=O` [Compound 82, 2-(3-(5-methylthiophen-2-yl)-6-oxopyridazin-1(6H)-yl)-N-(tert-pentyl)acetamide]: ≤ 10 µM. Then `Cn1ccc2c(NC(=O)Cn3nc(-c4cccs4)ccc3=O)cccc21` [Compound 83, N-(1-methyl-1H-indol-4-yl)-2-(6-oxo-3-(thiophen-2-yl)pyridazin-1(6H)-yl)acetamide], with ≤ 10 µM; and `Cc1cccc(-c2noc(-c3ccc(=O)n(Cc4cccnc4)c3)n2)c1` [Compound 84, 1-(pyridin-3-ylmethyl)-5-(3-(m-tolyl)-1,2,4-oxadiazol-5-yl)pyridin-2(1H)-one], with ≤ 10 µM. With `O=c1ccc(-c2nc(-c3cccc(Cl)c3)no2)cn1Cc1cncnc1` [Compound 85, 5-(3-(3-chlorophenyl)-l,2,4-oxadiazol-5-yl)-1-(pyrimidin-5-ylmethyl)pyridin-2(1H)-one], the concentration for half-maximal inhibition (IC50) is ≤ 10 µM. Then `O=c1ccc(-c2nc(-c3cccc(Cl)c3)no2)cn1Cc1cncc(F)c1` [Compound 86, 5-(3-(3-chlorophenyl)-1,2,4-oxadiazol-5-yl)-1-((5-fluoropyridin-3-yl)methyl)pyridin-2(1H)-one], with ≤ 10 µM. With `Cc1cccc(-c2noc(-c3ccc(=O)n(Cc4ccc(Cl)nc4)c3)n2)c1` [Compound 87, 1-((6-chloropyridin-3-yl)methyl)-5-(3-(m-tolyl)-1,2,4-oxadiazol-5-yl)pyridin-2(1H)-one], the IC50 is ≤ 10 µM. The same measure for `COc1ccc(Cn2cc(-c3nc(-c4cccc(C)c4)no3)ccc2=O)cn1` [Compound 88, 1-((6-methoxypyridin-3-yl)methyl)-5-(3-(m-tolyl)-1,2,4-oxadiazol-5-yl)pyridin-2(1H)-one]: ≤ 10 µM; for `Cc1cccc(-c2noc(-c3ccc(=O)n(Cc4cncc(Cl)c4)c3)n2)c1` [Compound 90, 1-((5-chloropyridin-3-yl)methyl)-5-(3-(m-tolyl)-1,2,4-oxadiazol-5-yl)pyridin-2(1H)-one]: ≤ 10 µM; for `O=c1ccc(-c2nc(-c3cccc(Cl)c3)no2)cn1Cc1cccnc1` [Compound 91, 5-(3-(3-chlorophenyl)-1,2,4-oxadiazol-5-yl)-1-(pyridin-3-ylmethyl)pyndin-2(1H)-one]: ≤ 10 µM.

In the case of `Cc1cccc(-c2noc(-c3ccc(=O)n(Cc4ncc(C)s4)c3)n2)c1` [Compound 92, 1-((5-methylthiazol-2-yl)methyl)-5-(3-(m-tolyl)-1,2,4-oxadiazol-5-yl)pyridin-2(1H)-one], the IC50 was ≤ 10 µM. Regarding `Cc1cccc(-c2noc(-c3ccc(=O)n(Cc4ccc(OC(F)F)nc4)c3)n2)c1` [Compound 93, 1-((6-(difluoromethoxy)pyridin-3-yl)methyl)-5-(3-(m-tolyl)-1,2,4-oxadiazol-5-yl)pyridin-2(1H)-one], the half-inhibitory concentration (IC50) is ≤ 10 µM. Turning to `Cc1cccc(-c2noc(-c3ccc(=O)n(Cc4cccnc4)c3)n2)c1` [Compound 94, 1-(pyridin-3-ylmethyl)-5-(3-(m-tolyl)-1,2,4-oxadiazol-5-yl)pyridin-2(1H)-one], the IC50 was ≤ 10 µM. The same measure for `Cc1cncc(Cn2cc(-c3nc(-c4cccc(C)c4)no3)ccc2=O)c1` [Compound 95, 1-((5-methylpyridin-3-yl)methyl)-5-(3-(m-tolyl)-1,2,4-oxadiazol-5-yl)pyridin-2(1H)-one]: ≤ 10 µM; for `Cc1cccc(-c2noc(-c3ccc(=O)n(Cc4ccc(C)nc4)c3)n2)c1` [Compound 96, 1-((6-methylpyridin-3-yl)methyl)-5-(3-(m-tolyl)-1,2,4-oxadiazol-5-yl)pyridin-2(1H)-one]: ≤ 10 µM; for `O=c1ccc(-c2nc(-c3ccc(F)c(F)c3)no2)cn1Cc1cccnc1` [Compound 97, 5-(3-(3,4-difluorophenyl)-1,2,4-oxadiazol-5-yl)-1-(pyridin-3-ylmethyl)pyridin-2(1H)-one]: ≤ 10 µM. With `Cc1cccc(-c2noc(-c3ccc(=O)n(Cc4cncc(C#N)c4)c3)n2)c1` [Compound 98, 5-((2-oxo-5-(3-(m-tolyl)-1,2,4-oxadiazol-5-yl)pyridin-1(2H)-yl)methyl)nicotinoni trile], the IC50 is ≤ 10 µM.

For the molecule `O=c1ccc(-c2nc(-c3cncc(Cl)c3)no2)cn1Cc1cccnc1` [Compound 99, 5-(3-(5-chloropyridin-3-yl)-1,2,4-oxadiazol-5-yl)-1-(pyridin-3-ylmethyl)pyridin-2(1H)-one], the IC50 is ≤ 10 µM. As for `Cc1cccc(-c2noc(-c3ccc(=O)n(Cc4nnc(C)o4)c3)n2)c1` [Compound 100, 1-((5-methyl-1,3,4-oxadiazol-2-yl)methyl)-5-(3-(m-tolyl)-1,2,4-oxadiazol-5-yl)pyridin-2(1H)-one], the IC50 is ≤ 10 µM. `COc1cccc(-c2noc(-c3ccc(=O)n(Cc4cccnc4)c3)n2)c1` [Compound 101, 5-(3-(3-methoxyphenyl)-1,2,4-oxadiazol-5-yl)-1-(pyridin-3-ylmethyl)pyridin-2(1H)-one]: the half-inhibitory concentration (IC50) is ≤ 10 µM. Then `O=c1ccc(-c2nc(-c3cccc(F)c3)no2)cn1Cc1cccnc1` [Compound 102, 5-(3-(3-fluorophenyl)-1,2,4-oxadiazol-5-yl)-1-(pyridin-3-ylmethyl)pyridin-2(1H)-one], with ≤ 10 µM; and `Cc1cccc(-c2noc(-c3ccc(=O)n(Cc4ccc(C#N)nc4)c3)n2)c1` [Compound 103, 5-((2-oxo-5-(3-(m-tolyl)-1,2,4-oxadiazol-5-yl)pyridin-1(2H)-yl)methyl)picolinonitrile], with ≤ 10 µM; and `O=c1ccc(-c2nc(-c3ccc(F)cc3)no2)cn1Cc1cccnc1` [Compound 104, 5-(3-(4-fluorophenyl)-1,2,4-oxadiazol-5-yl)-1-(pyridin-3-ylmethyl)pyridin-2(1H)-one], with ≤ 10 µM. Then `Cc1cccc(-c2noc(-c3ccc(=O)n(Cc4cncnc4)c3)n2)c1` [Compound 105, 1-(pyrimidin-5-ylmethyl)-5-(3-(m-tolyl)-1,2,4-oxadiazol-5-yl)pyridin-2(1H)-one], with ≤ 10 µM; and `O=c1ccc(-c2nc(-c3cccc(F)c3)no2)cn1Cc1cncnc1` [Compound 106, 5-(3-(3-fluorophenyl)-1,2,4-oxadiazol-5-yl)-1-(pyrimidin-5-ylmethyl)pyridin-2(1H)-one], with ≤ 10 µM; and `O=c1ccc(-c2nc(-c3ccccc3)no2)cn1Cc1cccnc1` [Compound 107, 5-(3-phenyl-1,2,4-oxadiazol-5-yl)-1-(pyridin-3-ylmethyl)pyridin-2(1H)-one], with 10 to 100 µM.
